Here are results for 15 compounds from patent US20230143612A1 (Arbutus Biopharma Corporation, priority 2020, published 2023).

pIC50: −log10 of the molar value.

Sequence of PD-L1 His protein / PD-1 Fc protein (Q9NZQ7 19-238 limits assumed): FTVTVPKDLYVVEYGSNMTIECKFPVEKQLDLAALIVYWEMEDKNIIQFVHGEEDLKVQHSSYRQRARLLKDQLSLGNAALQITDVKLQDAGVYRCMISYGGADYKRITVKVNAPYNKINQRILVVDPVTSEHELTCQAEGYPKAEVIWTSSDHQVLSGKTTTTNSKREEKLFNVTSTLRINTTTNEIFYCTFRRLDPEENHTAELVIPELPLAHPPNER

For this test, the target named is PD-L1 His protein / PD-1 Fc protein (Homo sapiens, UniProt Q9NZQ7). The test can be described thus: HTRF Assay (PD-1/PD-L1 interaction). Type of test: binding. The following applies: PD-L1 His 6 nM, PD-1 Fc 6 nM. In a few lines:
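HTRF: PD-L1 His (6 nM final), compound (3-fold dilutions, 20 μM to 0.001 μM final) and PD-1 Fc (6 nM final) preincubated 15 min at room temperature. Anti-human IgG-XL665 and anti-6HIS Tb cryptate (mixed at 6.7 nM and 0.35 nM) then added for 1 h at room temperature before reading.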
With `COc1nc(-c2cccc(-c3cccc(-c4ccn5c(=O)c(CNCC6(O)COC6)cnc5c4)c3Cl)c2Cl)ccc1CNC[C@@H]1CCC(=O)N1` [Example 243, (S)-8-(2,2′-dichloro-3′-(6-methoxy-5-((((5-oxopyrrolidin-2-yl)-methyl)-amino)-methyl)pyridin-2-yl)-[1,1′-biphenyl]-3-yl)-3-((((3-hydroxyoxetan-3-yl)methyl)-amino)-methyl)-4H-pyrido[1,2-a]-pyrimidin-4-one], the pIC50 was 9.52.

In turn, `COc1nc(-c2cccc(-c3cccc(-c4ccn5c(=O)c(CNCC6(CO)COC6)cnc5c4)c3Cl)c2Cl)ccc1CNC[C@@H]1CCC(=O)N1` [Example 244, (S)-8-(2,2′-dichloro-3′-(6-methoxy-5-((((5-oxopyrrolidin-2-yl)methyl)amino)-methyl)-pyridin-2-yl)-[1,1′-biphenyl]-3-yl)-3-((((3-(hydroxymethyl)oxetan-3-yl)-methyl)-amino)-methyl)-4H-pyrido[1,2-a]pyrimidin-4-one] showed a pIC50 of 9.22. Take `COc1nc(-c2cccc(-c3cccc(-c4ccn5c(=O)c(CNCC6(C)COC6)cnc5c4)c3Cl)c2Cl)ccc1CNC[C@@H]1CCC(=O)N1` [Example 246, (S)-8-(2,2′-dichloro-3′-(6-methoxy-5-((((5-oxopyrrolidin-2-yl)-methyl)amino)-methyl)pyridin-2-yl)-[1,1′-biphenyl]-3-yl)-3-((((3-methyloxetan-3-yl)-methyl)-amino)-methyl)-4H-pyrido[1,2-a]pyrimidin-4-one]: the pIC50 is 8.17. With `COc1nc(-c2cccc(-c3cccc(-c4ccc5oc(CNC[C@@H]6CCC(=O)N6)nc5c4)c3Cl)c2Cl)ccc1CNC[C@@H]1CCC(=O)N1` [Example 247, (S)-5-((((6-(2,2′-Dichloro-3′-(2-(((((S)-5-oxopyrrolidin-2-yl)methyl)amino)methyl)benzo[d]oxazol-5-yl)-[1,1′-biphenyl]-3-yl)-2-methoxypyridin-3-yl)methyl)amino)methyl)pyrrolidin-2-one], the pIC50 was 6.35.

On to `COc1nc(-c2cccc(-c3cccc(-c4ccc5nc(CNC[C@@H]6CCC(=O)N6)oc5c4)c3Cl)c2Cl)ccc1CNC[C@@H]1CCC(=O)N1` [Example 248, (S)-5-((((6-(2,2′-Dichloro-3′-(2-(((((S)-5-oxopyrrolidin-2-yl)methyl)amino)methyl)benzo[d]oxazol-6-yl)-[1,1′-biphenyl]-3-yl)-2-methoxypyridin-3-yl)methyl)amino)methyl)pyrrolidin-2-one], for which the pIC50 is 6.60. The same measure for `COc1nc(-c2cccc(-c3cccc(-c4ccn5c(=O)c(CNCC67CCC(C6)C(=O)N7)cnc5c4)c3Cl)c2Cl)ccc1CNC[C@@H]1CCC(=O)N1` (stereo partly drawn) [Example 252, 8-[2-Chloro-3-[2-chloro-3-[6-methoxy-5-[[[(2S)-5-oxopyrrolidin-2-yl]methylamino]methyl]-2-pyridyl]phenyl]phenyl]-3-[[(3-oxo-2-azabicyclo[2.2.1]heptan-1-yl)methylamino]methyl]pyrido[1,2-a]pyrimidin-4-one]: 8.33; for `COc1nc(-c2cccc(-c3cccc(-c4cc(C)n5c(=O)c(CN[C@H]6C[C@@](C)(O)C6)cnc5c4)c3Cl)c2Cl)ccc1CNC[C@@H]1CCC(=O)N1` [Example 254, 8-(2,2′-Dichloro-3′-(6-methoxy-5-(((((S)-5-oxopyrrolidin-2-yl)methyl)amino)methyl)pyridin-2-yl)-[1,1′-biphenyl]-3-yl)-3-((((1s,3s)-3-hydroxy-3-methylcyclobutyl)amino)methyl)-6-methyl-4H-pyrido[1,2-a]pyrimidin-4-one]: 7.21; for `CNC(=O)C1CN(Cc2cnc3cc(-c4cccc(-c5cccc(-c6ccc(CNC[C@@H]7CCC(=O)N7)c(OC)n6)c5Cl)c4Cl)ccn3c2=O)C1` [Example 255, (S)-1-((8-(2,2′-Dichloro-3′-(6-methoxy-5-((((5-oxopyrrolidin-2-yl)methyl)amino)methyl)pyridin-2-yl)-[1,1′-biphenyl]-3-yl)-4-oxo-4H-pyrido[1,2-a]pyrimidin-3-yl)methyl)-N-methylazetidine-3-carboxamide]: 10.00. Turning to `COc1nc(-c2cccc(-c3cccc(-c4ccn5c(=O)c(CNC6CCN(C(C)=O)CC6)cnc5c4)c3Cl)c2Cl)ccc1CNC[C@@H]1CCC(=O)N1` [Example 256, 3-[[(1-Acetyl-4-piperidyl)amino]methyl]-8-[2-chloro-3-[2-chloro-3-[6-methoxy-5-[[[(2S)-5-oxopyrrolidin-2-yl]methylamino]methyl]-2-pyridyl]phenyl]phenyl]pyrido[1,2-a]pyrimidin-4-one], the pIC50 is 10.00. Regarding `CNC(=O)[C@H]1CCN(Cc2cnc3cc(-c4cccc(-c5cccc(-c6ccc(CNC[C@@H]7CCC(=O)N7)c(OC)n6)c5Cl)c4Cl)ccn3c2=O)C1` [Example 257, (S)-1-((8-(2,2′-Dichloro-3′-(6-methoxy-5-(((((S)-5-oxopyrrolidin-2-yl)methyl)amino)methyl)pyridin-2-yl)-[1,1′-biphenyl]-3-yl)-4-oxo-4H-pyrido[1,2-a]pyrimidin-3-yl)methyl)-N-methylpyrrolidine-3-carboxamide], the pIC50 is 8.72. The compound `COc1nc(-c2cccc(-c3cccc(-c4cc5ncc(CNC[C@@H]6CCC(=O)N6)cc5cn4)c3Cl)c2Cl)ccc1CNC[C@@H]1CCC(=O)N1` [Example 258, (S)-5-((((6-(2,2′-Dichloro-3′-(3-(((((S)-5-oxopyrrolidin-2-yl)methyl)amino)methyl)-1,6-naphthyridin-7-yl)-[1,1′-biphenyl]-3-yl)-2-methoxypyridin-3-yl)methyl)amino)methyl) pyrrolidin-2-one] gave a pIC50 of 10.00. As for `COc1nc(-c2cccc(-c3cccc(-c4ccn5c(=O)c(CN[C@@H](C)C(N)=O)cnc5c4)c3Cl)c2Cl)ccc1CNC[C@@H]1CCC(=O)N1` [Example 260, (2S)-2-[[8-[2-Chloro-3-[2-chloro-3-[6-methoxy-5-[[[(2S)-5-oxopyrrolidin-2-yl]methylamino]methyl]-2-pyridyl]phenyl]phenyl]-4-oxo-pyrido[1,2-a]pyrimidin-3-yl]methylamino]propenamide], the pIC50 is 10.00. The same measure for `O=C1CC[C@@H](CNCc2cnc3cc(-c4cccc(-c5cccc(-c6ccc7c(n6)OCCNC7)c5Cl)c4Cl)ccn3c2=O)N1` [Example 261, (S)-8-(2,2′-Dichloro-3′-(2,3,4,5-tetrahydropyrido[3,2-f][1,4]oxazepin-8-yl)-[1,1′-biphenyl]-3-yl)-3-((((5-oxopyrrolidin-2-yl)methyl)amino)methyl)-4H-pyrido[1,2-a]pyrimidin-4-one]: 6.60; for `COc1nc(-c2cccc(-c3cccc(-c4ccn5c(=O)c(CNC[C@H](C)O)c(OC)nc5c4)c3Cl)c2Cl)ccc1CNC[C@@H]1CCC(=O)N1` [Example 262]: 8.21. The same measure for `CNC(=O)[C@H](C)N(C)Cc1cnc2cc(-c3cccc(-c4cccc(-c5ccc(CNC[C@@H]6CCC(=O)N6)c(OC)n5)c4Cl)c3Cl)ccn2c1=O` [Example 263, (S)-2-(((8-(2,2′-dichloro-3′-(6-methoxy-5-(((((S)-5-oxopyrrolidin-2-yl)methyl)amino)methyl)pyridin-2-yl)-[1,1′-biphenyl]-3-yl)-4-oxo-4H-pyrido[1,2-a]pyrimidin-3-yl)methyl)(methyl)amino)-N-methylpropanamide]: 9.22.

Usually pIC50 stands for the negative decadic logarithm of the IC50, by convention in mol/L. A low value points to a high IC50.
